Measurements published in patent US20230277669A1, “USES OF UROLITHINS” (Amazentis SA, priority 2022, published 2023).

System: APTK organoids
Assay: APTK organoids incubated with UA, flow cytometry
Type: cell-based, murine
Description: Oral UA confers anti-tumor effects in murine colorectal cancer in a T-cell dependent manner. (FIG. 1A) Schematic representation of AOM model and different UA containing diets. (FIG. 1B) Representative images of swiss-roll sections from AOM-induced colon tumors. Scale bars are 2 mm (upper row) and 300 µm (lower row), respectively. (FIG. 1C) Tumor incidence of AOM-induced tumors receiving different UA-containing diets; n=4/5/5. Data are mean ±SD, depicting one of two independent experiments. *p < 0.05 by two-sided t-test. (FIG. 1D) Average lesion size of AOM-induced tumors receiving different UA-containing diets; n=4/5/5. Data are mean ±SD, depicting one of two independent experiments. *p < 0.05 by two-sided t-test. (FIG. 1E) Relative number of CD45^+CD3^+ T cells in colons of AOM-treated mice at week 24 (n>7, pooled from two independent experiments). Data are mean ± SD, **p < 0.01 by two-sided t-test. (FIG. 1F) Organoid treatment scheme. APTK-organoids were incubated in the presence of UA or DMSO for the indicated time points, prior to flow cytometric analysis. (FIG. 1G) Quantification of lysosome formation as assessed by lysotracker MFI via flow cytometry after 24 h incubation at the presence of various UA concentrations (n=5/4/4). Depicts one out of two indepdent experiments. Data are mean ± SD, *p < 0.05; **p < 0.01 as established via two-sided t-test. (FIG. 1H) Mitotracker signal of APTK organoids incubated for 24 h at the presence of UA in vitro (n=4/4/4) and antigen presentation via MHC-I molecules (I) after 48 h of treatment (n=4/4/4). Results from one out of two independent experiments are shown. Data are mean ± SD, statistical analysis was performed via two-sided t-test, *p < 0.05; **p < 0.01, ****p < 0.0001. (FIG. 1I) Upregulation of MHC-I by UA. (FIG. 1J) Experimental setup of oral UA administration in mice with established APTK-s.c. tumors. […] (FIG. 1L) End point tumor weight, (FIG. 1M) CD8+ T cell infiltration in APTK-s.c. tumors assessed by flow cytometry, normalising total number of CD8^+ T cells to tumor weight (n=7 per group). […]

[1] = increasing concentrations of UA, 24 h

SMILES: O=c1oc2cc(O)ccc2c2ccc(O)cc12 [Urolithin A]
- MHC-I (antigen presentation) (48 h of treatment): marked upregulation of MHC-I
- MitoTracker staining [1]: loss of MitoTracker staining
- formation of lysosomes (lysotracker MFI) [1]: dose-dependent formation of lysosomes
